Experimental findings from PMC4457826 (PLoS Pathogens, 2015) are described below.

One test has as its system USP7-NTD. The test is described as follows: Fluorescence polarization, USP7-NTD. Format: binding, human. To be noted: FITC peptide 40 nM, protein up to 200 μM. The protocol:
(§1) USP7 proteins were titrated (0 to 200 μM) with N-terminally labeled FITC-ICP0, FITC-GMPS or FITC-UHRF1 peptides (synthesized by CanPeptide, 40 nM) in 0.01% Triton X-100, 150 mM NaCl, 20 mM Tris pH 7.5. Polarized emission of FITC-ICP0 or FITC-GMPS or FITC-UHRF1 was measured with a Synergy H4 Hybrid Multi-Mode Microplate Reader (BioTek) with the excitation wavelength set at 485 nm and the emission wavelength set at 528 nm. The competition binding assay was performed with a fixed USP7-CTD concentration (8 μM), 40nM FITC-UHRF1 and increasing concentrations of unlabeled ICP0 (0 to 2500 μM). The polarization data were plotted and analyzed using GraphPad Prism version 5.0 to calculate dissociation (KD) and inhibition (Ki) constants. These assays were repeated at least 3 times and used to calculate the average and standard deviation.

Another test has as its system USP7 Ubl345. Kind of test: Fluorescence polarization, Ubl345. Format: binding, human. The note with it: FITC peptide 40 nM, protein up to 200 μM. The protocol:
as §1

Another test addresses T1, USP7-CTD (Homo sapiens, UniProt Q93009).
T1 construct: USP7-CTD (535–1102); His tag (inferred from nickel-NTA purification; vector p15TV-L); made in house; host or cells: E. coli BL21(DE3)mgk
Kind of test: Competition binding assay (fluorescence polarization), FITC-UHRF1 displacement. To be noted: USP7-CTD 8 μM, FITC-UHRF1 40 nM, unlabeled ICP0 0 to 2500 μM. The protocol:
Given the importance of the KxxxK motif in ICP0 and GMPS for USP7-CTD binding, we examined the UHRF1 sequence for such a motif and identified ^642[…]^649 (Fig 4A). […] The saturation curve is shown in S3 Fig. A competitive binding assay was used to establish whether the UHRF1 and ICP0 peptides were competing for the same binding site on Ubl2. This assay was performed by measuring the fluorescence polarization with increasing amounts of unlabeled ICP0 while keeping both USP7-CTD and FITC-UHRF1 constant. […] This competition was confirmed by the competition binding experiment shown in S3 Fig.
as §1, with “These assays were repeated at least 3 times and used to calculate the average and standard deviation.” left out

T1 sequence (Q93009 535-1102): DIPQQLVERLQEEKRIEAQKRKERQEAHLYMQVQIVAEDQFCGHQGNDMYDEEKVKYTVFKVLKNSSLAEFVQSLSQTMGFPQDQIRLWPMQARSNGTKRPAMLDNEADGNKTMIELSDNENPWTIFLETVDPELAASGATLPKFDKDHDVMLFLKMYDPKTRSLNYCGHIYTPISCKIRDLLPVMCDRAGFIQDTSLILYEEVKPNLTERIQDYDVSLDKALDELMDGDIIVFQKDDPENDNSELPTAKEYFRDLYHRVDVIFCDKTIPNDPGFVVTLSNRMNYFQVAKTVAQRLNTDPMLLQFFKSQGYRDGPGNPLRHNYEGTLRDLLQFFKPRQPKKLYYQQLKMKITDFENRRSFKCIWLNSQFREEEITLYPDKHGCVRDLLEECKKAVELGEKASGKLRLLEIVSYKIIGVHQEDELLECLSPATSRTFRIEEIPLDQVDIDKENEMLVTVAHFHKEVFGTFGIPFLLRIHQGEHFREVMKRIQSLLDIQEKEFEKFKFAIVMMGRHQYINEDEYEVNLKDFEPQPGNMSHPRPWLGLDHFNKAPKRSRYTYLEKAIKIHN

Regarding `C[C@H](NC(=O)[C@H](CS)NC(=O)[C@H](CCCCN)NC(=O)[C@H](CCCNC(=N)N)NC(=O)[C@@H]1CCCN1C(=O)CNC(=O)[C@H](CCCNC(=N)N)NC(=O)[C@@H]1CCCN1)C(=O)N[C@@H](CCCNC(=N)N)C(=O)N[C@@H](CCCCN)C(=O)N[C@H](C(=O)N[C@@H](CCCNC(=N)N)C(=O)N[C@@H](Cc1c[nH]cn1)C(=O)O)[C@@H](C)O` [ICP0 peptide], the “polarization with USP7-NTD” value with USP7-NTD is reported as “did not show any polarization”. In addition, the “polarization with Ubl345” value in the test with USP7 Ubl345 was “did not show any polarization”. Further, on USP7-CTD, the “competition with UHRF1 peptide for binding to Ubl2” value is given as “readily competes with the UHRF1 peptide for binding to Ubl2”.
